# Assay results published in publication PMC6627374, “Effects of the Pentapeptide P33 on Memory and Synaptic Plasticity in APP/PS1 Transgenic Mice: A Novel Mechanism Presenting the Protein Fe65 as a Target” (International Journal of Molecular Sciences, 2019).
# “And” between values parts separate entries of the source, which are not always exact repeats. Equal values may be shown once. “Also recorded” adds a separate entry of the source. Where a SMILES comes first, the peptide text is derived from it.
# Legend:
# [1] = tested on: Pin1-WW domain (WW domain of Pin1); experiment: ITC binding to Pin1-WW; conditions: 310 K, PBS pH 7.4, Pin1-WW 81.4 μM in cell, P33 in syringe
# Description: (§1) Synthesis of acetyl-Fe65-WW, acetyl-Pin1-WW, and the control PPPPP (structures involved in Figure 2) was carried out on a Rink Amide AM (0.3 mmol∙g^−1) resin using Fmoc chemistry and activation with HATU in the presence of DIPEA. Cleavage was achieved by a treatment with TFA/H2O/triisopropylsilane/1,4-dithio-DL-threitol/phenol (90:5:3:1:1) at room temperature (RT). TFA was removed in vacuo, the peptides were then precipitated using cold, dry diethyl-ether, dissolved in ACN/H2O and lyophilized.
# Isothermal titrations were performed using a Microcal VP-ITC (Malvern Instruments, Malvern, UK) microcalorimeter. Binding experiments were carried out in degassed phosphate-buffered saline (PBS) at pH 7.4. The concentrations of Fe65-WW and Pin1-WW were normalized for the peptide contents. In one titration experiment, 10-μL portions of the ligand-containing solution (P33 or PPPPP) were injected from a computer-controlled 300-μL microsyringe at intervals of 300 s into the solution of the WW domain (Fe65-WW or Pin1-WW), dissolved in the same buffer as for the ligand. The rev of the microsyringe was set to 307 rpm. […] Control experiments were performed by injecting P33 or PPPPP into the cell containing plain buffer without the WW domain, with results achieved via subtracting the dilution heats from those measured in the presence of the WW domain.
# [2] = molecular target: T1, Fe65-WW domain (WW domain of Fe65) (Homo sapiens, UniProt O00213); experiment: ITC binding to Fe65-WW; parameters: species or system human and mouse (WW domain identical); conditions: 310 K
# T1 construct: made in house; host or cells: chemical solid-phase peptide synthesis (Fmoc, Rink Amide AM resin); no expression host
# T1 sequence (O00213 253-285 limits assumed): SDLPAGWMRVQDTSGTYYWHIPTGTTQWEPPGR
# Description: as §1
# Isothermal titrations were performed using a Microcal VP-ITC (Malvern Instruments, Malvern, UK) microcalorimeter. Binding experiments were carried out in degassed phosphate-buffered saline (PBS) at pH 7.4. The concentrations of Fe65-WW and Pin1-WW were normalized for the peptide contents. In one titration experiment, 10-μL portions of the ligand-containing solution (P33 or PPPPP) were injected from a computer-controlled 300-μL microsyringe at intervals of 300 s into the solution of the WW domain (Fe65-WW or Pin1-WW), dissolved in the same buffer as for the ligand. The rev of the microsyringe was set to 307 rpm. Measurements were repeated twice at 310 K. The starting concentrations of Fe65-WW and Pin1-WW in the cell were 83.5 and 81.4 μM, respectively, and the concentrations of the stock solutions containing P33 or PPPPP in the syringe were 1.006 and 1.056 mM, respectively. Control experiments were performed by injecting P33 or PPPPP into the cell containing plain buffer without the WW domain, with results achieved via subtracting the dilution heats from those measured in the presence of the WW domain.
# human APP = experiment: Western blot, APP level in brain (6E10); type: in vivo, human APP in APP/PS1 transgenic mice; conditions: APP/PS1 mice; 5 mg∙kg^−1 i.p., five days per week, six months; HC and CTX
# Description: For this study, three-month-old male and female WT and APP/PS1 mice (n = 37) were used. Four groups were defined: WT-vehicle (physiological saline) (male n = 4; female n = 6), WT-P33 (male n = 6; female n = 5), APP/PS1-vehicle (male n = 3; female n = 5), and APP/PS1-P33 (male n = 6; female n = 2). Animals were subjected to intraperitoneal (i.p.) injections of P33 (5 mg∙kg^−1) for five days per week, over a course of six months. The mice were kept in groups under constant temperature (23 ± 0.5 °C), lighting (12-h/12-h light/dark cycle, lights on at 7:00 a.m.), and humidity (~50%). Standard mouse chow and tap water were supplied ad libitum. All behavioral experiments were performed in the light period. Handling was done daily at the same time.
# Nine-month-old mice (three animals per group) were euthanized via cervical dislocation. […] To quantify the level of Aβ in the mice, we used a sandwich ELISA Kit (Innotest Amyloid-[…]) from Innogenetics (Gent, Belgium), following the instructions of the manufacturer. The absorbance values were measured at 450 nm on a 96-well plate reader (NOVOstar OPTIMA, BMG Labtech, Offenburg, Germany). […]
# The results of spine density and immunohistochemistry experiments were calculated with one-way ANOVA followed by Fisher’s LSD post hoc tests. […] Data were analyzed with SPSS (IBM SPSS Statistics 24), and were expressed as the mean ± standard error of the mean (SEM). […]
structure (smiles),measurement,setting,value
C[C@@H](N)C(=O)N1CCC[C@@H]1C(=O)N[C@H](C)C(=O)N1CCC[C@@H]1C(=O)N[C@H](CCC(=O)O)C(N)=O [P33] (HELM PEPTIDE1{[dA].[dP].[dA].[dP].[dE].[am]}$$$$V2.0),binding to Pin1-WW (in words),[1],no considerable binding; also recorded: no detectable binding to the Pin1-WW could be observed
same,"selectivity of binding, Fe65-WW over Pin1-WW (in words)",[2]; PBS pH 7.4,can bind selectively to the Fe65-WW domain
same,ΔH,[2]; PBS pH 7.4,0.082 ± 0.001 kcal/mol
same,stoichiometric factor N,"[2]; PBS pH 7.4, 1:1 [P33]/[Fe65-WW] complex",1.14 and 1.14 ± 0.01
same,Kd,"[2]; PBS pH 7.4, Fe65-WW 83.5 μM in cell, P33 1.006 mM in syringe, measurements repeated twice, read-out: dissociation constant Kd",4.68 ± 0.04 µM
same,"APP level, effect of P33 (in words)",human APP,did not change with the P33-treatment
